Series [1] can be described thus: Acute toxicity, intraperitoneal administration (mortality, LD50, body weight, dietary). The class given is in vivo, mice. The note with it: both sexes, mouse, in vivo, ip, mice, i.p., observed 7 days. As to the method: Acute Toxicity • Compounds PDHM/TDHM.
140 mice were divided into 7 groups (n=20), each group include 10 males and 10 females, they were treated with different concentrations of dosages and observed for 7 days. Specific experimental groups and experimental results were noted below. Note: Section 1-6 group compound are PDHM groups, and group 7 is a negative control group.
140 mice were divided into 7 groups (n=20), each group include 10 males and 10 females, they were treated with different concentrations of dosage and observed for 7 days. Note: Section 1-6 group compound are PDHM groups, and group 7 is a negative control group.

Series [2] is described as follows: Acute toxicity, intragastric administration (maximum tolerated dose). The note with it: both, mouse, in vivo, po, 1250 mg/kg.

The structures appear in SMILES notation. Like-named read-outs stand apart in the source and are kept apart here.

Consider `O=C1c2c(O)cc(O)cc2O[C@H](c2cc(O)c(O)c(O)c2)[C@H]1O` [PDHM, piperidinium 2,3-dihydroxy-5-((2R,3R)-3,5,7-trihydroxy-4-oxochroman-2-yl)phenolate], for which the LD50 at 7 days in series [1] (read-out: 95% confidence limit of LD50) was 743 to 755 mg/kg; in series [1] (read-out: LD50), 902 mg/kg. The MTD at 7 days in series [2] was determined as 3750 mg/kg.

Source of the values: US9139551B2, “Preparation of a new class of water-soluble ammonium 2,3-dihydroxy-5-((2R,3R)-3,5,7-trihydroxy-4-oxochroman-2-yl) phenolates and their biological activity of alcohol elimination” (priority 2014, dated 2015).
